Reference: patent US20230321100A1, “CD73 INHIBITOR AND APPLICATION THEREOF IN MEDICINE” (BETTA PHARMACEUTICALS CO., LTD, priority 2020, published 2023)
pIC50: −log10 of the molar value.

target: T1, CD73 (Calu-6 cells) (Homo sapiens, UniProt P21589); test: Enzymatic activity detection at the cellular level (Calu-6 cells, AMP substrate, Cell-titer Glo luminescence); format: cell-based; settings: enzymatic IC50 at the Calu-6 cell level, 30 min pre-incubation, 120 min at 37° C.
T1 construct: endogenous in cells; host or cells: Calu-6 cells
T1 sequence (P21589 27-549): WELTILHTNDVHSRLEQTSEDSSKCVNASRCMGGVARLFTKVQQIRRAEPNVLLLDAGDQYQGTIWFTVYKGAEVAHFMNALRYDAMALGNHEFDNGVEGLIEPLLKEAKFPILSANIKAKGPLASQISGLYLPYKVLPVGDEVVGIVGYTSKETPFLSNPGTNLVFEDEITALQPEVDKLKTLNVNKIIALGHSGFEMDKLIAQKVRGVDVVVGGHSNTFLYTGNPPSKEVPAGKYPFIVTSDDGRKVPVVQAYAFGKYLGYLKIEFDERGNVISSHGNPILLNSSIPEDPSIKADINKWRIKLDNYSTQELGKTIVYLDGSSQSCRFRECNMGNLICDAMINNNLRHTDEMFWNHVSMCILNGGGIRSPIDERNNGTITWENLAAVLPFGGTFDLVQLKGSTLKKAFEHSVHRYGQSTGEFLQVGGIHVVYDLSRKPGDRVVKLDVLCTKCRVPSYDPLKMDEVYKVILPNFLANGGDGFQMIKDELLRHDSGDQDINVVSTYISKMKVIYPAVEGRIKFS
Procedure: The Calu-6 cells were digested and re-suspended using TM buffer (25 mM Tris, 5 mM MgCl2, pH 7.5). Calu-6 cell suspension was seeded into 96 well cell culture plate, and the number of cells per well was 2.5×10^4, adding volume of 100 μL/well. Compound solution with gradient concentration was prepared by TM buffer, and 50 μL DMSO solution with different concentration was added into each pore cell. […] Pre-incubated in a shaker at 37° C. for 30 min. Each well was added with 50 μL 800 μM AMP solution. The shaker at 37° C. for 120 min was continued to incubate, then the 96-well plates were centrifuged and 50 μL supernatant was transferred to the new 96-well plates. […] The luminescence value was read by the multi-function enzymatic reader and converted into the inhibition percentage: Inhibition percentage=(1−reading/Max)*100. The “maximum value” was DMSO control. IC50 values were obtained by curve fitting with GraphPad Prism software.

Row | SMILES | pIC50
1 | COc1nnc(-c2c[nH]c(=O)[nH]c2=O)cc1[C@H]1C[C@@H]1C#Cc1ccccc1 [Compound 21, 5-(6-methoxy-S-((1S,2S)-2-(phenylethynyl)cyclopropyl)pyridazin-3-yl)pyrimidine-2,4(1H,3H)-dione] | 8.26
2 | N#Cc1nnc(-c2c[nH]c(=O)[nH]c2=O)cc1C1CC1c1ccccc1 (stereo not drawn) [Compound 34, 6-(2,4-dioxo-1,2,3,4-tetrahydropyrimidin-5-yl)-4-(2-phenylcyclopropyl)pyridazine-3-carbonitrile] | 8.23
3 | O=c1[nH]cc(-c2cc([C@H]3C[C@@H]3c3nc4ccccc4[nH]3)c(Cl)nn2)c(=O)[nH]1 [Compound 60, 5-(5-((1S,2S)-2-(1H-benzo[d]imidazol-2-yl)cyclopropyl)-6-chloropyridazin-3-yl)pyrimidine-2, 4(1H,3H)-dione] | 7.63
4 | O=c1[nH]cc(-c2cc(C3CC3c3ccc(C(F)(F)F)cc3)c(Cl)nn2)c(=O)[nH]1 (stereo not drawn) [Compound 66] | 8.41
5 | CC[C@H]1C[C@@H]1c1cc(-c2c[nH]c(=O)[nH]c2=O)nnc1C1CC1 [Compound 3, 5-(6-cyclopropyl-5-((1S,2S)-2-ethylcyclopropyl)pyridazin-3-yl)pyrimidine-2,4(1H,3H)-dione] | 6.14
6 | N#Cc1ccccc1C#C[C@H]1C[C@@H]1c1cc(-c2c[nH]c(=O)[nH]c2=O)nnc1Cl [Compound 46] | 8.36
7 | N#Cc1ccc(C#C[C@H]2C[C@@H]2c2cc(-c3c[nH]c(=O)[nH]c3=O)nnc2C#N)cc1 [Compound 55] | 8.25
8 | N#Cc1ccc(/C=C/[C@H]2C[C@@H]2c2cc(-c3c[nH]c(=O)[nH]c3=O)nnc2Cl)cc1 [Compound 17, 4-((E)-2-((1R,2S)-2-(3-chloro-6-(2,4-dioxo-1,2,3,4-tetrahydropyrimidin-5-yl)pyridazin-4-yl)cyclopropyl)vinyl)benzonitrile] | 8.64
9 | Cc1nnc(-c2c[nH]c(=O)[nH]c2=O)cc1[C@H]1C[C@@H]1/C=C/c1ccccc1 [Compound 16, 5-(6-methyl-5-((1S,2R)-2-((E)-styryl)cyclopropyl)pyridazin-3-yl)pyrimidine-2,4(1H,3H)-dione] | 8.64
10 | N#Cc1ccc(C2CC2c2cc(-c3c[nH]c(=O)[nH]c3=O)nnc2C#N)cc1 (stereo not drawn) [Compound 78, 4-(2-(4-cyanophenyl)cyclopropyl)-6-(2,4-dioxo-1,2,3,4-tetrahydropyrimidin-5-yl)pyridazine-3-carbonitrile] | 8.07
11 | O=c1[nH]cc(-c2cc([C@H]3C[C@@H]3C#Cc3ccc(Cl)cc3)c(Cl)nn2)c(=O)[nH]1 [Compound 47] | 8.11
12 | COc1nnc(-c2c[nH]c(=O)[nH]c2=O)cc1[C@H]1C[C@@H]1C#Cc1ccccn1 [Compound 52] | 8.24
13 | N#Cc1cccc(C2CC2c2cc(-c3c[nH]c(=O)[nH]c3=O)nnc2Cl)c1 (stereo not drawn) [Compound 26, 3-(2-(3-chloro-6-(2,4-dioxo-1,2,3,4-tetrahydropyrimidin-5-yl)pyridazin-4-yl)cyclopropyl)benzonitrile] | 8.06
14 | Cc1nnc(-c2c[nH]c(=O)[nH]c2=O)cc1[C@H]1C[C@@H]1C=C(F)F [Compound 11, 5-(5-((1S,2S)-2-(2,2-difluorovinyl)cyclopropyl)-6-methylpyridazin-3-yl)pyrimidine-2,4(1H,3H)-dione] | 7.34
15 | O=Cc1ccc(C2CC2c2cc(-c3c[nH]c(=O)[nH]c3=O)nnc2Cl)cc1 (stereo not drawn) [Compound 74] | 8.57
16 | O=c1[nH]cc(-c2cc(C3CC3c3ccc(F)c(C(F)(F)F)c3)c(Cl)nn2)c(=O)[nH]1 (stereo not drawn) [Compound 69] | 7.87
17 | COc1nnc(-c2c[nH]c(=O)[nH]c2=O)cc1[C@H]1C[C@@H]1/C=C/c1ccccc1 [Compound 20, 5-(6-methoxy-S-((1S,2R)-2-((E)-styryl)cyclopropyl)pyridazin-3-yl)pyrimidine-2,4(1H,3H)-dione] | 8.92
18 | N#Cc1ccc(C#C[C@H]2C[C@@H]2c2cc(-c3c[nH]c(=O)[nH]c3=O)nnc2Cl)cc1 [Compound 45] | 8.82
19 | O=c1[nH]cc(-c2cc([C@H]3C[C@@H]3c3ccccc3)c(Cl)nn2)c(=O)[nH]1 [Compound 57, 5-(6-chloro-5-((S,2S)-2-phenylcyclopropyl)pyridazin-3-yl)pyrimidine-2,4(1H,3H)-dione] | 8.89
20 | CC(C)c1ccc(C2CC2c2cc(-c3c[nH]c(=O)[nH]c3=O)nnc2Cl)cc1 (stereo not drawn) [Compound 64] | 7.65
21 | Cc1ccc(C2CC2c2cc(-c3c[nH]c(=O)[nH]c3=O)nnc2Cl)cc1 (stereo not drawn) [Compound 24, 5-(6-chloro-S-(2-(p-tolyl)cyclopropyl)pyridazin-3-yl)pyrimidine-2,4(1H,3H)-dione] | 8.28
22 | O=c1[nH]cc(-c2cc(C3CC3c3ccc(F)cc3)c(Cl)nn2)c(=O)[nH]1 (stereo not drawn) [Compound 27, 5-(6-chloro-5-(2-(4-fluorophenyl)cyclopropyl)pyridazin-3-yl)pyrimidine-2,4(1H,3H)-dione] | 8.74
23 | COc1nnc(-c2c[nH]c(=O)[nH]c2=O)cc1C1CC1c1ccc(C#N)cc1 (stereo not drawn) [Compound 77, 4-(2-(6-(2,4-dioxo-1,2,3,4-tetrahydropyrimidin-5-yl)-3-methoxypyridazin-4-yl)cyclopropyl)benzonitrile] | 8.14
24 | N#Cc1ccc(C2CC2c2cc(-c3c[nH]c(=O)[nH]c3=O)nnc2Cl)cc1 (stereo not drawn) [Compound 25, 4-(2-(3-chloro-6-(2,4-dioxo-1,2,3,4-tetrahydropyrimidin-5-yl)pyridazin-4-yl)cyclopropyl)benzonitrile] | 8.74
25 | COc1nnc(-c2c[nH]c(=O)[nH]c2=O)cc1[C@H]1C[C@@H]1C#Cc1ccc(C#N)cc1 [Compound 50] | 7.90
26 | C=C[C@H]1C[C@@H]1c1cc(-c2c[nH]c(=O)[nH]c2=O)nnc1Cl [Compound 13, 5-(6-chloro-5-((1S,2R)-2-vinylcyclopropyl)pyridazin-3-yl)pyrimidine-2,4(1H,3H)-dione] | 8.07
27 | O=c1[nH]cc(-c2cc(C3CC3c3cccc4ccccc34)c(Cl)nn2)c(=O)[nH]1 (stereo not drawn) [Compound 30, 5-(6-chloro-S-(2-(naphthalen-1yl)cyclopropyl)pyridazin-3-yl)pyrimidine-2,4(1H,3H)-dione] | 7.22
28 | C=C1CC(c2cc(-c3c[nH]c(=O)[nH]c3=O)nnc2Cl)C1 [Compound 4, 5-(6-chloro-5-(3-methylenecyclobutyl)pyridazin-3-yl)pyrimidine-2,4(1H,3H)-dione] | 7.65
29 | Cc1nnc(-c2c[nH]c(=O)[nH]c2=O)cc1C1CC1c1ccccc1 (stereo not drawn) [Compound 22, 5-(6-methyl-5-(2-phenylcyclopropyl)pyridazin-3-yl)pyrimidine-2,4(1H,3H)-dione] | 7.64
30 | N#Cc1nnc(-c2c[nH]c(=O)[nH]c2=O)cc1[C@H]1C[C@@H]1C#Cc1ccccn1 [Compound 56] | 7.71

test system: not listed separately; test: Pharmacokinetic evaluation in mice after intragastric administration (plasma concentration by LC/MS/MS); format: in vivo; settings: mouse, Balb/C female mice, single PO 10 mg/kg
Procedure: LC/MS/MS method was used to determine the plasma concentration of the embodiment compound at different time after intragastric administration in mice. Study the pharmacokinetic behavior of the compound in mice and evaluate its pharmacokinetic characteristics.
Methods: A single PK study (PO, 10 mg/kg) was performed on healthy Balb/C female mice (about 20 g) purchased from Beijing Vital River Laboratory Animal Technology Co., Ltd. About 1 hour before administration, a certain amount of drug was weighed and added with 5% DMSO and 95% hydroxypropyl betascyclodextrin (HP-β-CD) solution to form a colorless and clear solution. HP-β-CD solution is a 20% HP-β-CD solution prepared by adding HP-p-CD powder into 0.9% normal saline. Intragastric administration was performed at the dosage volume of 10 mL/kg, and blood was collected through the orbital venous plexus of mice. The blood collection time points were as follows: At 0.25, 0.5, 1.0, 2.0, 4.0, 7.0 and 24.0 hours before and after drug administration, 100 uL whole blood to K2EDTA anticoagulant tubes were taken at each time point, and the collected whole blood samples were centrifuged at 4000 rpm for 10 min. The plasma was separated and stored in the refrigerator at −80° C.
The above plasma samples were added to the pure acetonitrile solution containing the inner target for protein precipitation pre-treatment, centrifugation was performed at 10000 rpm for 10 min, and the supernatant was taken, mixed with water 1:1, and 10 μL to LC-MS/MS was used for detection. The linear range of compounds detected in plasma samples was 1-1000 ng/mL, and the data results were as follows:
The compound of the invention has good pharmacokinetic absorption and obvious pharmacokinetic advantages.

Row | SMILES | AUC [ng·h/mL] | Cmax [ng/mL] | Tmax [min]
31 | Cc1nnc(-c2c[nH]c(=O)[nH]c2=O)cc1[C@H]1C[C@@H]1C(C)C [Compound D1, reference compound] | 677 | 547 | 30
32 | O=c1[nH]cc(-c2cc([C@H]3C[C@@H]3c3ccccc3)c(Cl)nn2)c(=O)[nH]1 [Compound 57, 5-(6-chloro-5-((S,2S)-2-phenylcyclopropyl)pyridazin-3-yl)pyrimidine-2,4(1H,3H)-dione] | 10700 | 5410 | 30
33 | C=C[C@H]1C[C@@H]1c1cc(-c2c[nH]c(=O)[nH]c2=O)nnc1Cl [Compound 13, 5-(6-chloro-5-((1S,2R)-2-vinylcyclopropyl)pyridazin-3-yl)pyrimidine-2,4(1H,3H)-dione] | 16900 | 10400 | 30
